Source: patent US9303016B2, “Derivatives of aza adamantane and uses thereof” (CONNEXIOS LIFE SCIENCES PVT. LTD., priority 2011, dated 2016)

Target: T1, human full length HSD11β1 (Homo sapiens, UniProt P28845)
T1 construct: transient expression of human full length HSD11β1 expression vector; host or cells: CHO cells, transient transfection
Assay: In Vitro HSD11β1 Inhibition Assay
Assay type: cell-based
Settings: CHO cells transiently expressing human HSD11β1; 200 nM cortisone+500 uM NADPH overnight; cortisone to cortisol by LC/MS-MS; read-out: 11βHSD1 (IC50)
Outline: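 Whole-cell assay in CHO cells transiently transfected with full-length human HSD11β1, re-seeded 24 h after transfection. Cells incubated overnight with 200 nM cortisone plus 500 uM NADPH, with or without inhibitor. Cortisone-to-cortisol conversion measured by LC/MS-MS; IC50 (nM) from an 8-point log concentration-inhibition curve.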

T1 sequence (P28845 whole entry): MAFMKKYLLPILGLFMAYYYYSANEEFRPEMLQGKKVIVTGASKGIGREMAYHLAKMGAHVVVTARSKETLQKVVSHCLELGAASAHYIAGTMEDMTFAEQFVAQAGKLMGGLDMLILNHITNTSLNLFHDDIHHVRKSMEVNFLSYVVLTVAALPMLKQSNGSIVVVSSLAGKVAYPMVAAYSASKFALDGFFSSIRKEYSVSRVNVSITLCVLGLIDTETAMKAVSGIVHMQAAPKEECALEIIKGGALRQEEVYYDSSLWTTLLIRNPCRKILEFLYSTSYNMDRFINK

SMILES | IC50
CC(CC(=O)N1C2CC3CC1CC(c1nnn[nH]1)(C3)C2)c1c[nH]c2cccc(C3CC3)c12 (centres unmarked) [Compound 149, 3-(4-cyclopropyl-1H-indol-3-yl)-1-[5 (1H-tetrazol-5-yl)-2-azatricyclo[3.3.1.1^3,7]dec-2-yl]butan-1-one] | > 250 nM
CC(CC(=O)N1C2CC3CC1CC(CC(=O)O)(C3)C2)c1c[nH]c2cccc(C3CC3)c12 (centres unmarked) [Compound 152, {2-[3-(4-cyclopropyl-1H-indol-3-yl)butanoyl]-2-azatricyclo[3.3.1.1^3,7]dec-5-yl}acetic acid] | 100 to 150 nM
CC(CC(=O)N1C2CC3CC1CC(CC(=O)O)(C3)C2)c1c[nH]c2cccc(-c3cccs3)c12 (centres unmarked) [Compound 154, (2-{3-[4-(thiophen-2-yl)-1H-indol-3-yl]butanoyl}-2-azatricyclo[3.3.1.1^3,7]dec-5-yl)acetic acid] | > 250 nM
O=C(O)CC12CC3CC(C1)N(C(=O)CC(c1cccs1)c1c[nH]c4cccc(F)c14)C(C3)C2 (centres unmarked) [Compound 159, {2-[3-(4-fluoro-1H-indol-3-yl)-3-(thiophen-2-yl)propanoyl]-2-azatricyclo[3.3.1.1^7]dec-5-yl}acetic acid] | 100 to 150 nM
CC(CC(=O)N1C2CC3CC1CC(CC(=O)O)(C3)C2)c1c[nH]c2ccc(Cl)c(Br)c12 (centres unmarked) [Compound 162, {2-[3-(4-bromo-5-chloro-1H-indol-3-yl)butanoyl]-2-azatricyclo[3.3.1.1^3,7]dec-5-yl}acetic acid] | 150 to 200 nM
CC(CC(=O)N1C2CC3(O)CC1CC(O)(C2)C3)c1c[nH]c2ccc(Cl)c(C3CC3)c12 (centres unmarked) [Compound 163, 3-(5-chloro-4-cyclopropyl-1H-indol-3-yl)-1-(5,7-dihydroxy-2-azatricyclo[3.3.1.1^3,7]dec-2-yl)butan-1-one] | > 250 nM
CC(CC(=O)N1C2CC3CC1CC(C(C)C(=O)O)(C3)C2)c1c[nH]c2cccc(C3CC3)c12 (centres unmarked) [Compound 167, 2-{2-[3-(4-cyclopropyl-1H-indol-3-yl)butanoyl]-2-azatricyclo[3.3.1.1^3,7]dec-5-yl}propanoic acid] | 200 to 250 nM
Cc1ccc2[nH]cc(C(C)CC(=O)N3C4CC5CC3CC(F)(C5)C4)c2c1C (centres unmarked) [Compound 176, 3-(4,5-dimethyl-1H-indol-3-yl)-1-(5-fluoro-2-azatricyclo[3.3.1.1^3,7]dec-2-yl)butan-1-one] | > 250 nM
CC(C)Oc1cccc2[nH]cc(C(C)CC(=O)N3C4CC5CC(C4)CC3C5)c12 (centres unmarked) [Compound 181, 1-(2-azatricyclo[3.3.1.1^3,7]dec-2-yl)-3-[4-(propan-2-yloxy)-1H-indol-3-yl]butan-1-one] | > 250 nM
CC(C)Oc1cccc2[nH]cc(C(C)CC(=O)N3C4CC5CC3CC(F)(C5)C4)c12 (centres unmarked) [Compound 182, 1-(5-fluoro-2-azatricyclo[3.3.1.1^3,7]dec-2-yl)-3-[4-(propan-2-yloxy)-1H-indol-3-yl]butan-1-one] | 150 to 200 nM
CC(CC(=O)N1C2CC3CC(C2)CC1C3)c1c[nH]c2cccc(N3CCC(C(=O)O)CC3)c12 (centres unmarked) [Compound 183, 1-{3-[4-(2-azatricyclo[3.3.1.1^3,7]dec-2-yl)-4-oxobutan-2-yl]-1H-indol-4-yl}piperidine-4-carboxylic acid] | > 250 nM
CC(CC(=O)N1C2CC3CC1CC(O)(C3)C2)c1nc2cc(Cl)ccc2s1 (centres unmarked) [Compound 190, 3-(5-chloro-1,3-benzothiazol-2-yl)-1-(5-hydroxy-2-azatricyclo[3.3.1.1^3,7]dec-2-yl)butan-1-one] | 150 to 200 nM
CC(CC(=O)N1C2CC3CC1CC(C#N)(C3)C2)c1nc2cc(Cl)ccc2s1 (centres unmarked) [Compound 191, 2-[3-(5-chloro-1,3-benzothiazol-2-yl)butanoyl]-2-azatricyclo[3.3.1.1^3,7]decane-5-carbonitrile] | > 250 nM
CC(CC(=O)N1C2CC3CC1CC(O)(C3)C2)c1nc2ccc(Cl)cc2s1 (centres unmarked) [Compound 192, 3-(6-chloro-1,3-benzothiazol-2-yl)-1-(5-hydroxy-2-azatricyclo[3.3.1.1^3,7]dec-2-yl)butan-1-one] | < 100 nM
CC(CC(=O)N1C2CC3CC1CC(C(N)=O)(C3)C2)c1nc2ccc(Cl)cc2s1 (centres unmarked) [Compound 196, 2-[3-(6-chloro-1,3-benzothiazol-2-yl)butanoyl]-2-azatricyclo[3.3.1.1^3,7]decane-5-carboxamide] | > 250 nM
CC(CC(=O)N1C2CC3CC1CC(O)(C3)C2)c1c[nH]c2ncc(Cl)c(C3CC3)c12 (centres unmarked) [Compound 198, 3-(5-chloro-4-cyclopropyl-1H-pyrrolo[2,3-b]pyridin-3-yl)-1-(5-hydroxy-2-azatricyclo[3.3.1.1^3,7]dec-2-yl)butan-1-one] | < 100 nM
CC(CC(=O)N1C2CC3CC1CC(O)(C3)C2)c1c[nH]c2ncc(C3CC3)c(C3CC3)c12 (centres unmarked) [Compound 201, 3-(4,5-dicyclopropyl-1H-pyrrolo[2,3-b]pyridin-3-yl)-1-(5-hydroxy-2-azatricyclo[3.3.1.1^3,7]dec-2-yl)butan-1-one] | > 250 nM
CC(CC(=O)N1C2CC3CC1CC(O)(C3)C2)c1nc2ccc(Cl)cc2[nH]1 (centres unmarked) [Compound 202, 3-(6-chloro-1H-benzimidazol-2-yl)-1-(5-hydroxy-2-azatricyclo[3.3.1.1^3,7]dec-2-yl)butan-1-one] | > 250 nM
Cc1cccc2c1c(C(C)CC(=O)N1C3CC4CC1CC(O)(C4)C3)cn2C1CC1 (centres unmarked) [Compound 205, 3-(1-cyclopropyl-4-methyl-1H-indol-3-yl)-1-(5-hydroxy-2-azatricyclo[3.3.1.1^3,7]dec-2-yl)butan-1-one] | > 250 nM
Cc1cccc2c1c(C(C)CC(=O)N1C3CC4CC1CC(O)(C4)C3)cn2C (centres unmarked) [Compound 206, 3-(1,4-dimethyl-1H-indol-3-yl)-1-(5-hydroxy-2-azatricyclo[3.3.1.1^3,7]dec-2-yl)butan-1-one] | > 250 nM

More lines, now with the values ahead:

IC50 | SMILES
100 to 150 nM | CC(CC(=O)N1C2CC3CC1CC(CC(=O)O)(C3)C2)c1c[nH]c2cccc(Cl)c12 (centres unmarked) [Compound 145, {2-[3-(4-chloro-1H-indol-3-yl)butanoyl]-2-azatricyclo[3.3.1.1^3,7]dec-5-yl}acetic acid]
< 100 nM | CC(CC(=O)N1C2CC3CC1CC(O)(C3)C2)c1c[nH]c2cccc(-c3cccs3)c12 (centres unmarked) [Compound 153, 1-(5-hydroxy-2-azatricyclo[3.3.1.1^3,7]dec-2-yl)-3-[4-(thiophen-2-yl)-1H-indol-3-yl]butan-1-one]
100 to 150 nM | Cc1ccc2[nH]cc(C(C)CC(=O)N3C4CC5CC3CC(O)(C5)C4)c2c1C1CC1 (centres unmarked) [Compound 160, 3-(4-cyclopropyl-5-methyl-1H-indol-3-yl)-1-(5-hydroxy-2-azatricyclo[3.3.1.1^3,7]dec-2-yl)butan-1-one]
100 to 150 nM | Cc1ccc2[nH]cc(C(C)CC(=O)N3C4CC5CC3CC(O)(C5)C4)c2c1C (centres unmarked) [Compound 164, 3-(4,5-dimethyl-1H-indol-3-yl)-1-(5-hydroxy-2-azatricyclo[3.3.1.1^3,7]dec-2-yl)butan-1-one]
> 250 nM | COc1ccc2[nH]cc(C(C)CC(=O)N3C4CC5CC3CC(O)(C5)C4)c2c1C (centres unmarked) [Compound 165, 1-(5-hydroxy-2-azatricyclo[3.3.1.1^3,7]dec-2-yl)-3-(5-methoxy-4-methyl-1H-indol-3-yl)butan-1-one]
< 100 nM | Cc1ccc2[nH]cc(C(C)CC(=O)N3C4CC5CC3CC(O)(C5)C4)c2c1Cl (centres unmarked) [Compound 166, 3-(4-chloro-5-methyl-1H-indol-3-yl)-1-(5-hydroxy-2-azatricyclo[3.3.1.1^3,7]dec-2-yl)butan-1-one]
< 100 nM | CC(CC(=O)N1C2CC3CC1CC(O)(C3)C2)c1c[nH]c2ccc(Cl)c(Cl)c12 (centres unmarked) [Compound 168, 3-(4,5-dichloro-1H-indol-3-yl)-1-(5-hydroxy-2-azatricyclo[3.3.1.1^3,7]dec-2-yl)butan-1-one]
200 to 250 nM | COc1ccc2[nH]cc(C(C)CC(=O)N3C4CC5CC3CC(O)(C5)C4)c2c1C1CC1 (centres unmarked) [Compound 171, 3-(4-cyclopropyl-5-methoxy-1H-indol-3-yl)-1-(5-hydroxy-2-azatricyclo[3.3.1.1^3,7]dec-2-yl)butan-1-one]
> 250 nM | CC(CC(=O)N1C2CC3CC1CC(O)(C3)C2)c1c[nH]c2cccc(N3CCCCC3)c12 (centres unmarked) [Compound 180, 1-(5-hydroxy-2-azatricyclo[3.3.1.1^3,7]dec-2-yl)-3-[4-(piperidin-1-yl)-1H-indol-3-yl]butan-1-one]
> 250 nM | CC(CC(=O)N1C2CC3CC1CC(C(C)C(=O)O)(C3)C2)c1c[nH]c2cccc(Cl)c12 (centres unmarked) [Compound 186, 2-{2-[3-(4-chloro-1H-indol-3-yl)butanoyl]-2-azatricyclo[3.3.1.1^3,7]dec-5-yl}propanoic acid]
100 to 150 nM | CC(CC(=O)N1C2CC3CC1CC(O)(C3)C2)c1c[nH]c2cccc(-c3ccsc3)c12 (centres unmarked) [Compound 187, 1-(5-hydroxy-2-azatricyclo[3.3.1.1^3,7]dec-2-yl)-3-[4-(thiophen-3-yl)-1H-indol-3-yl]butan-1-one]
< 100 nM | CC(CC(=O)N1C2CC3CC1CC(O)(C3)C2)c1c[nH]c2ncc(Cl)c(Cl)c12 (centres unmarked) [Compound 197, 3-(4,5-dichloro-1H-pyrrolo[2,3-b]pyridin-3-yl)-1-(5-hydroxy-2-azatricyclo[3.3.1.1^3,7]dec-2-yl)butan-1-one]
100 to 150 nM | CC(CC(=O)N1C2CC3CC1CC(O)(C3)C2)c1cn(C)c2cccc(Cl)c12 (centres unmarked) [Compound 207, 3-(4-chloro-1-methyl-1H-indol-3-yl)-1-(5-hydroxy-2-azatricyclo[3.3.1.1^3,7]dec-2-yl)butan-1-one]
100 to 150 nM | CC(CC(=O)N1C2CC3CC1CC(O)(C3)C2)c1c[nH]c2ccc(-c3ccco3)c(Cl)c12 (centres unmarked) [Compound 208, 3-[4-chloro-5-(furan-2-yl)-1H-indol-3-yl]-1-(5-hydroxy-2-azatricyclo[3.3.1.1^3,7]dec-2-yl)butan-1-one]
200 to 250 nM | COc1c(C)ccc2[nH]cc(C(C)CC(=O)N3C4CC5CC3CC(O)(C5)C4)c12 (centres unmarked) [Compound 209, 1-(5-hydroxy-2-azatricyclo[3.3.1.1^3,7]dec-2-yl)-3-(4-methoxy-5-methyl-1H-indol-3-yl)butan-1-one]
